The values below come from US20100204203A1, “Chemical Compounds 637: Pyridopyrimidinediones as PDE4 Inhibitors” (priority 2007, published 2010).

This test deals with recombinant Human Phosphodiesterase B2 (PDE4B2) (Homo sapiens, UniProt Q07343). Put plainly: Human Phosphodiesterase B2 Radiometric Assay (yttrium silicate SPA beads, [3H]cyclic AMP). The note with it: recombinant human PDE4B2, radiometric SPA assay, 8 nM [3H]cyclic AMP; read-out: PDE4B2 pIC50 (converted). The class given is biochemical. In outline:
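Compounds were preincubated 30 min at 30 °C with 0.1 mg/mL PDE4B2 in 50 mM HEPES pH 7.5, 8.3 mM MgCl2, 1.7 mM EGTA, 0.01% Brij 35. Then 8 nM [3H]cAMP was added for 20 min, stopped with yttrium silicate SPA beads plus 18 mM ZnSO4 capturing product 5′AMP; pIC50 by curve fitting.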

recombinant Human Phosphodiesterase B2 (PDE4B2), sequence (Q07343 1-564 isoform Q07343-2): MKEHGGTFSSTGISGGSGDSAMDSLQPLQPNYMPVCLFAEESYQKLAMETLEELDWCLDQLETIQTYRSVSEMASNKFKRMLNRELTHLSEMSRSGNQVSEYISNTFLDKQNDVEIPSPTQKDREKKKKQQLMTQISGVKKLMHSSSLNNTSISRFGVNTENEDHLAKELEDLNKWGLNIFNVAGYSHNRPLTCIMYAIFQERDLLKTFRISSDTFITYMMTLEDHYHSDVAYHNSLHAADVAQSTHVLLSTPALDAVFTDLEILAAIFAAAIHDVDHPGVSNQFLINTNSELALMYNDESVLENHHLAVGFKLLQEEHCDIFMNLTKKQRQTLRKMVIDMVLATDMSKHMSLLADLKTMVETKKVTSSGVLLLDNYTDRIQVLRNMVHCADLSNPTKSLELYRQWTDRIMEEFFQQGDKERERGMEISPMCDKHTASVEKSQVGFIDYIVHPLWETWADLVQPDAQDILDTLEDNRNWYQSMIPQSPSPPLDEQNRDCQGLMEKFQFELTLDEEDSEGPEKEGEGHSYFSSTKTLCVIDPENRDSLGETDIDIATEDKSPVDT

As for `CN(Cc1cc(O)ccc1-c1cccc(-n2c(=O)n([C@H]3CC[C@@H](NCc4cn5cc(F)ccc5n4)CC3)c(=O)c3cc(F)cnc32)c1)C1(CO)CC1` [Example 321, 6-fluoro-3-(cis-4-{[(6-fluoroimidazo[1,2-a]pyridin-2-yl)methyl]amino}cyclohexyl)-1-(4′-hydroxy-2′-{[[1-(hydroxymethyl)cyclopropyl](methyl)amino]methyl}biphenyl-3-yl)pyrido[2,3-c]pyrimidine-2,4(1H,3H)-dione], the IC50 was 100 pM.

On to `CN(Cc1cc(O)ccc1-c1cccc(-n2c(=O)n([C@H]3CC[C@@H](NCc4cn5cc(F)ccc5n4)CC3)c(=O)c3cc(F)cnc32)c1)CC1(O)CC1` [Example 322, 6-fluoro-3-(cis-4-{[(6-fluoroimidazo[1,2-c]pyridin-2-yl)methyl]amino}cyclohexyl)-1-(4′-hydroxy-2′-{[[(1-hydroxycyclopropyl)methyl](methyl)amino]methyl}biphenyl-3-yl)pyrido[2,3-d]pyrimidine-2,4(1H,3H)-dione], for which the IC50 was 251 pM.

For `CN(Cc1cc(O)ccc1-c1cccc(-n2c(=O)n([C@H]3CC[C@@H](NCc4cn5cc(F)ccc5n4)CC3)c(=O)c3cc(F)cnc32)c1)C1CC1` [Example 323, 1-(2′-{[cyclopropyl(methyl)amino]methyl}-4′-hydroxybiphenyl-3-yl)-6-fluoro-3-(cis-4-{[(6-fluoroimidazo[1,2-a]pyridin-2-yl)methyl]amino}cyclohexyl)pyrido[2,3-d]pyrimidine-2,4(1H,3H)-dione], the IC50 was 251 pM.

`C[C@@H](CO)N(C)Cc1cc(O)ccc1-c1cccc(-n2c(=O)n([C@H]3CC[C@@H](NCc4cn5cc(F)ccc5n4)CC3)c(=O)c3cc(F)cnc32)c1` [Example 324, 6-fluoro-3-(cis-4-{[(6-fluoroimidazo[1,2-a]pyridin-2-yl)methyl]amino}cyclohexyl)-1-(4′-hydroxy-2′-{[[(1S)-2-hydroxy-1-methylethyl](methyl)amino]methyl}biphenyl-3-yl)pyrido[2,3-d]pyrimidine-2,4(1H,3H)-dione]: the IC50 was 501 pM.

As for `CN(Cc1cc(O)ccc1-c1cccc(-n2c(=O)n([C@H]3CC[C@@H](NCc4cn5cc(F)ccc5n4)CC3)c(=O)c3cc(F)cnc32)c1)CC1CC1` [Example 325], the IC50 was 2000 pM.

On to `O=c1c2cc(F)cnc2n(-c2cccc(-c3ccc(O)cc3CN3CC[C@@H](O)C3)c2)c(=O)n1[C@H]1CC[C@@H](NCc2cn3cc(F)ccc3n2)CC1` [Example 326, 6-fluoro-3-(cis-4-{[(6-fluoroimidazo[1,2-a]pyridin-2-yl)methyl]amino}cyclohexyl)-1-(4′-hydroxy-2′-{[(3R)-3-hydroxypyrrolidin-1-yl]methyl}biphenyl-3-yl)pyrido[2,3-d]pyrimidine-2,4(1H,3H)-dione], for which the IC50 is 398 pM.

For `COCCN(C)Cc1cc(O)ccc1-c1cccc(-n2c(=O)n([C@H]3CC[C@@H](NCc4cn5cc(F)ccc5n4)CC3)c(=O)c3cc(F)cnc32)c1` [Example 327, 6-fluoro-3-(cis-4-{[(6-fluoroimidazo[1,2-a]pyridin-2-yl)methyl]amino}cyclohexyl)-1-(4′-hydroxy-2′-{[(2-methoxyethyl)(methyl)amino]methyl}biphenyl-3-yl)pyrido[2,3-d]pyrimidine-2,4(1H,3H)-dione], the IC50 is 251 pM.

Take `CC(=O)N1CCN(Cc2cc(O)ccc2-c2cccc(-n3c(=O)n([C@H]4CC[C@@H](NCc5cn6cc(F)ccc6n5)CC4)c(=O)c4cc(F)cnc43)c2)CC1` [Example 328, 1-{2′-[(4-acetylpiperazin-1-yl)methyl]-4′-hydroxybiphenyl-3-yl}-6-fluoro-3-(cis-4-{[(6-fluoroimidazo[1,2-a]pyridin-2-yl)methyl]amino}cyclohexyl)pyrido [2,3-d]pyrimidine-2,4(1H,3H)-dione]: the IC50 is 10 pM.

For the compound `CN(CCO)Cc1cc(O)ccc1-c1cccc(-n2c(=O)n([C@H]3CC[C@@H](NCc4cn5cc(F)ccc5n4)CC3)c(=O)c3cc(F)cnc32)c1` [Example 329, 6-fluoro-3-(cis-4-{[(6-fluoroimidazo[1,2-a]pyridin-2-yl)methyl]amino}cyclohexyl)-1-(4′-hydroxy-2′-{[(2-hydroxyethyl) (methyl)amino]methyl}biphenyl-3-yl)pyrido[2,3-d]pyrimidine-2,4(1H,3H)-dione], the IC50 was 126 pM.

With `O=c1c2cc(F)cnc2n(-c2cccc(-c3ccc(O)cc3CN3CCC[C@H]3CO)c2)c(=O)n1[C@H]1CC[C@@H](NCc2cn3cc(F)ccc3n2)CC1` [Example 330, 6-fluoro-3-(cis-4-{[(6-fluoroimidazo[1,2-a]pyridin-2-yl)methyl]amino}cyclohexyl)-1-(4′-hydroxy-2′-{[(2S)-2-(hydroxymethyl)pyrrolidin-1-yl]methyl}biphenyl-3-yl)pyrido[2,3-d]pyrimidine-2,4(1H,3H)-dione], the IC50 was 2510 pM.

Regarding `O=c1c2cc(F)cnc2n(-c2cccc(-c3ccc(O)cc3CN3CC[C@H](O)C3)c2)c(=O)n1[C@H]1CC[C@@H](NCc2cn3cc(F)ccc3n2)CC1` [Example 331, 6-fluoro-3-(cis-4-{[(6-fluoroimidazo[1,2-a]pyridin-2-yl)methyl]amino}cyclohexyl)-1-(4′-hydroxy-2′-{[(3S)-3-hydroxypyrrolidin-1-yl]methyl}biphenyl-3-yl)pyrido[2,3-d]pyrimidine-2,4(1H,3H)-dione], the IC50 is 398 pM.

As for `O=c1c2cc(F)cnc2n(-c2cccc(-c3ccc(O)cc3CN3CCC[C@@H]3CO)c2)c(=O)n1[C@H]1CC[C@@H](NCc2cn3cc(F)ccc3n2)CC1` [Example 332, 6-fluoro-3-(cis-4-{[(6-fluoroimidazo[1,2-a]pyridin-2-yl)methyl]amino}cyclohexyl)-1-(4′-hydroxy-2′-{[(2R)-2-(hydroxymethyl)pyrrolidin-1-yl]methyl}biphenyl-3-yl)pyrido[2,3-d]pyrimidine-2,4(1H,3H)-dione], the IC50 was 50.1 pM.

For the compound `O=C(CN1CCCCC1)N[C@H]1CC[C@@H](n2c(=O)c3cc(F)cnc3n(-c3cccc(-c4ccc(O)cc4CN4CCOCC4)c3)c2=O)CC1` [Example 333, N-{cis-4-[6-fluoro-1-[4′-hydroxy-2′-(morpholin-4-ylmethyl)biphenyl-3-yl]-2,4-dioxo-1,4-dihydropyrido[2,3-d]pyrimidin-3(2H)-yl]cyclohexyl}-2-piperidin-1-ylacetamide], the IC50 was 2000 pM.

Turning to `Cc1ccc2nc(CN[C@H]3CC[C@@H](n4c(=O)c5cc(F)cnc5n(-c5cccc(-c6ccc(O)cc6CN6CCOCC6)c5)c4=O)CC3)cn2c1` [Example 334, 6-fluoro-1-[4′-hydroxy-2′-(morpholin-4-ylmethyl)biphenyl-3-yl]-3-(cis-4-{[(6-methylimidazo[1,2-a]pyridin-2-yl)methyl]amino}cyclohexyl)pyrido[2,3-d]pyrimidine-2,4 (1H,3H)-dione], the IC50 was 63.1 pM.

Regarding `Cc1cccc2nc(CN[C@H]3CC[C@@H](n4c(=O)c5cc(F)cnc5n(-c5cccc(-c6ccc(O)cc6CN6CCOCC6)c5)c4=O)CC3)cn12` [Example 335, 6-fluoro-1-[4′-hydroxy-2′-(morpholin-4-ylmethyl)biphenyl-3-yl]-3-(cis-4-{[(5-methylimidazo[1,2-c]pyridin-2-yl)methyl]amino}cyclohexyl)pyrido[2,3-d]pyrimidine-2,4(1H,3H)-dione], the IC50 is 7.94 pM.

For the compound `Cc1c(CN[C@H]2CC[C@@H](n3c(=O)c4cc(F)cnc4n(-c4cccc(-c5ccc(O)cc5CN5CCOCC5)c4)c3=O)CC2)nc2ccccn12` [Example 336, 6-fluoro-1-[4′-hydroxy-2′-(morpholin-4-ylmethyl)biphenyl-3-yl]-3-(cis-4-{[(3-methylimidazo[1,2-a]pyridin-2-yl)methyl]amino}cyclohexyl)pyrido[2,3-d]pyrimidine-2,4(1H,3H)-dione], the IC50 is 31.6 pM.

Turning to `O=c1c2cc(F)cnc2n(-c2cccc(-c3cc(O)ccc3CN3CCOCC3)c2)c(=O)n1[C@H]1CC[C@@H](NCc2cn3cc(F)ccc3n2)CC1` [Example 337, 6-fluoro-3-(cis-4-{[(6-fluoroimidazo[1,2-a]pyridin-2-yl)methyl]amino}cyclohexyl)-1-[5′-hydroxy-2′-(morpholin-4-ylmethyl)biphenyl-3-yl]pyrido[2,3-d]pyrimidine-2,4(1H,3H)-dione], the IC50 is 100 pM.

For `O=c1c2cc(F)cnc2n(-c2cccc(-c3ccc(CN4CCCOCC4)cc3)c2)c(=O)n1[C@H]1CC[C@@H](NCc2cn3cc(F)ccc3n2)CC1` [Example 338, 6-fluoro-3-(cis-4-{[(6-fluoroimidazo[1,2-a]pyridin-2-yl)methyl]amino}cyclohexyl)-1-[4′-(1,4-oxazepan-4-ylmethyl)biphenyl-3-yl]pyrido[2,3-d]pyrimidine-2,4(1H,3H)-dione], the IC50 was 251 pM.

As for `O=c1c2cc(F)cnc2n(-c2cccc(-c3ccc(CN4CCCOCC4)cc3)c2)c(=O)n1[C@H]1CC[C@@H](N(Cc2cn3cc(F)ccc3n2)Cc2cn3cc(F)ccc3n2)CC1` [Example 339, 3-(cis-4-{bis[(6-fluoroimidazo[1,2-a]pyridin-2-yl)methyl]amino}cyclohexyl)-6-fluoro-1-[4′-(1,4-oxazepan-4-ylmethyl)biphenyl-3-yl]pyrido[2,3-d]pyrimidine-2,4(1H,3H)-dione], the IC50 is 39.8 pM.

`CCN(CC)CCOc1ccc(CN(C(C)=O)[C@H]2CC[C@@H](n3c(=O)c4cc(F)cnc4n(-c4cccc(-c5ccc(CN6CCN(C(C)C)CC6)cc5)c4)c3=O)CC2)cc1` [Example 340, N-{4-[2-(diethylamino)ethoxy]benzyl}-N-{cis-4-[6-fluoro-1-{4′-[(4-isopropylpiperazin-1-yl)methyl]biphenyl-3-yl}-2,4-dioxo-1,4-dihydropyrido[2,3-d]pyrimidin-3 (2H)-yl]cyclohexyl}acetamide]: the IC50 is 1580 pM.
